According to patent US10443062B2, “Genes that improve tolerance to lignocellulosic toxins when overexpressed in yeast” (Wisconsin Alumni Research Foundation, priority 2016, dated 2019):
Where two headings read alike, the source gives them in different places.

Test system: NCYC361 and other strains
Conditions: for doubling time: YPD supplemented with 100 mg/L of iron sulfate vs YPD
Method: Shown are the average and standard deviation of the doubling times measured for each strain in YPD and in YPD supplemented with 100 mg/L of iron sulfate. […] Data represent three biological replicates.

In the case of `O.O.O.O.O.O.O.O=S(=O)([O-])[O-].[Fe+2]` [iron sulfate, iron (II) sulfate heptahydrate], the “growth with iron supplementation to YPD” value (NCYC361) is reported as “partially alleviated the slow growth”, the doubling time (NCYC361, p<0.0008) is reported as “faster” and the doubling time (any other strain) is reported as “not significantly different”.
